{
  "source": "patent US4965280A",
  "about": "“Antifungal carbinols” (E. I. Du Pont de Nemours and Company, priority 1989, dated 1990)",
  "key": {"[1]": {"test_system": "Candida albicans ATCC 11651", "assay": "In vitro antifungal MIC, microtiter broth dilution", "details": "Candida albicans, ATCC11651, 24 h, read-out: MIC values, C. albicans, 30°, 24 hours"}, "[2]": {"test_system": "Botrytis cinerea", "assay": "Example C bean grey mold", "format": "in vivo", "details": "Botrytis cinerea, 24 h, 100 PPM; read-out: disease control rating, Ex. C", "in_short": "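At 20 or 100 ppm, each compound was applied as an aqueous suspension (acetone 6% final; TREM 014 250 ppm) sprayed onto young broad bean plants to the point of run-off.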"}, "[3]": {"test_system": "JIMSONWEED", "assay": "Test D", "format": "in vivo, Datura stramonium"}, "[4]": {"test_system": "WATERCHESTNUT", "assay": "Test C rice paddy", "format": "in vivo, Eleocharis spp.", "details": "Eleocharis, 504 h, 21 days, read-out: plant response", "in_short": "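Greenhouse paddy pots of saturated silt loam received rice seedlings at the 2.0–2.5 leaf stage, transplanted weed seedlings or sprouted tubers, and barnyardgrass seed. After flooding to 3 cm at 3–4 days, solvent-formulated test chemical went straight into the water within 24 h.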"}, "[5]": {"test_system": "IVY MORNINGLORY", "assay": "Test D", "format": "in vivo, Ipomoea hederacea"}, "[6]": {"test_system": "RICE JAP EFF", "assay": "Test C rice paddy", "format": "in vivo, Japonica rice", "details": "Oryza sativa, 504 h, 21 days, read-out: plant response", "in_short": "(§1)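 Chemicals were applied as a water treatment to flooded pots (3 cm depth, kept constant) within 24 h of flooding, which occurred 3–4 days after planting. Weeds were grown from seedlings, sprouted tubers or seed alongside separately potted transplanted rice.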"}, "[7]": {"test_system": "Pythium aphanadermatum", "assay": "Example J cucumber damping off", "format": "in vivo", "details": "Pythium, 336 h; 5 kg/ha; read-out: disease control rating, Ex. J", "in_short": "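Seeds and soil were inoculated with a mix of sand, cereal and Pythium aphanadermatum mycelium, the fungus responsible for cucumber damping off. They were kept in a growth chamber at 30° C. for 14 days, and disease was then rated to assess control.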"}, "[8]": {"test_system": "Puccinia recondita", "assay": "Example G wheat leaf rust", "format": "in vivo", "details": "100 PPM, read-out: disease control rating, Ex. G"}, "[9]": {"test_system": "BARNYARDGRASS", "assay": "Test C rice paddy", "format": "in vivo, Echinochloa crusgalli", "details": "Echinochloa crus-galli, 504 h, 21 days, read-out: plant response", "in_short": "as §1"}, "[10]": {"test_system": "Plasmorpara viticola", "assay": "Example I grape downy mildew", "format": "in vivo", "details": "read-out: disease control rating, Ex. I", "in_short": "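First, each compound is taken up in acetone amounting to 6% of the final volume. It is then suspended in purified water containing 250 ppm of the polyhydric alcohol ester surfactant TREM 014, at 100 or 20 ppm. Finally, the suspension is sprayed onto grape seedlings until run-off.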"}, "[11]": {"test_system": "LARGE CRABGRASS", "assay": "Test D", "format": "in vivo, Digitaria sanguinalis"}, "[12]": {"test_system": "Phytophthora infestans", "assay": "whole plant or invertebrate", "format": "in vivo", "details": "Phytophthora infestans, in Solanum lycopersicum, read-out: disease control rating, Ex. H, 100 PPM"}, "[13]": {"test_system": "Cercosporidium personatum", "assay": "Example B Peanut Late Leafspot", "format": "in vivo", "details": "Nothopassalora personata; 100 PPM; read-out: disease control rating, Ex. B", "in_short": "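Dose 100 or 20 ppm; vehicle acetone 6% v/v final in water + 250 ppm surfactant; applied by spraying peanut seedlings to run-off.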"}, "[14]": {"test_system": "Fusarium oxysporum f. sp. cucumerinum", "assay": "Example L cucumber wilt", "format": "in vivo", "details": "336 h, 5 kg/ha, read-out: disease control rating, Ex. L", "method": "[…] Seeds and soil were then inoculated with a mixture of sand, cereal and mycelium of the fungus Fusarium oxysporum f. sp. cucumerinum, causal agent of cucumber wilt, and incubated in a growth chamber at 30° C. for 14 days. Disease ratings were then made."}, "[15]": {"test_system": "JOHNSONGRASS", "assay": "Test D", "format": "in vivo, Sorghum halepense"}},
  "data": [
    {"smiles": "C=C(c1ccccc1)C(O)(Cn1cncn1)c1ccc(Cl)cc1Cl", "note": "(centres unmarked) [Example 50, 2-(2,4-Dichlorophenyl)-3-phenyl-1-(1H-1,2,4-triazol-1-yl)-3-buten-2-ol]", "values": [
      {"measurement": "MIC", "setting": "[1]", "value": 0.1, "unit": "µg/mL"},
      {"measurement": "pest or weed control at 100 ppm", "setting": "[2]", "value": 98, "unit": "%"},
      {"measurement": "plant response", "setting": "[3]; POSTEMERGENCE 0250 GM/HA", "value": 20, "unit": "%"},
      {"measurement": "plant response", "setting": "[3]; POSTEMERGENCE 0500 GM/HA", "value": 45, "unit": "%"},
      {"measurement": "plant response", "setting": "[3]; PREEMERGENCE 0064 GM/HA", "value": 0, "unit": "%"},
      {"measurement": "plant response", "setting": "[3]; PREEMERGENCE 0125 GM/HA", "value": 25, "unit": "%"},
      {"measurement": "plant response", "setting": "[3]; PREEMERGENCE 0250 GM/HA", "value": 50, "unit": "%"},
      {"measurement": "plant response", "setting": "[3]; PREEMERGENCE 0500 GM/HA", "value": 70, "unit": "%"},
      {"measurement": "pest or weed control at 64 g/ha", "setting": "[4]; 0064 G/HA", "value": 0, "unit": "%"},
      {"measurement": "pest or weed control at 125 g/ha", "setting": "[4]; 0125 G/HA", "value": 0, "unit": "%"},
      {"measurement": "pest or weed control at 250 g/ha", "setting": "[4]; 0250 G/HA", "value": 0, "unit": "%"},
      {"measurement": "pest or weed control at 500 g/ha", "setting": "[4]; 0500 G/HA", "value": 0, "unit": "%"},
      {"measurement": "pest or weed control at 1000 g/ha", "setting": "[4]; 1000 G/HA", "value": 0, "unit": "%"},
      {"measurement": "plant response", "setting": "[5]; POSTEMERGENCE 0250 GM/HA", "value": 20, "unit": "%"},
      {"measurement": "plant response", "setting": "[5]; POSTEMERGENCE 0500 GM/HA", "value": 60, "unit": "%"},
      {"measurement": "plant response", "setting": "[5]; PREEMERGENCE 0064 GM/HA", "value": 0, "unit": "%"},
      {"measurement": "plant response", "setting": "[5]; PREEMERGENCE 0125 GM/HA", "value": 30, "unit": "%"},
      {"measurement": "plant response", "setting": "[5]; PREEMERGENCE 0250 GM/HA", "value": 40, "unit": "%"},
      {"measurement": "plant response", "setting": "[5]; PREEMERGENCE 0500 GM/HA", "value": 65, "unit": "%"},
      {"measurement": "pest or weed control at 64 g/ha", "setting": "[6]; 0064 G/HA", "value": 0, "unit": "%"},
      {"measurement": "pest or weed control at 125 g/ha", "setting": "[6]; 0125 G/HA", "value": 0, "unit": "%"},
      {"measurement": "pest or weed control at 250 g/ha", "setting": "[6]; 0250 G/HA", "value": 30, "unit": "%"},
      {"measurement": "pest or weed control at 500 g/ha", "setting": "[6]; 0500 G/HA", "value": 60, "unit": "%"},
      {"measurement": "pest or weed control at 1000 g/ha", "setting": "[6]; 1000 G/HA", "value": 70, "unit": "%"},
      {"measurement": "pest or weed control at 5000 g/ha", "setting": "[7]", "value": 0, "unit": "%"},
      {"measurement": "pest or weed control at 100 ppm", "setting": "[8]", "value": 100, "unit": "%"},
      {"measurement": "pest or weed control at 64 g/ha", "setting": "[9]; 0064 G/HA", "value": 0, "unit": "%"},
      {"measurement": "pest or weed control at 125 g/ha", "setting": "[9]; 0125 G/HA", "value": 0, "unit": "%"},
      {"measurement": "pest or weed control at 250 g/ha", "setting": "[9]; 0250 G/HA", "value": 60, "unit": "%"},
      {"measurement": "pest or weed control at 500 g/ha", "setting": "[9]; 0500 G/HA", "value": 70, "unit": "%"},
      {"measurement": "pest or weed control at 1000 g/ha", "setting": "[9]; 1000 G/HA", "value": 70, "unit": "%"},
      {"measurement": "pest or weed control at 100 ppm", "setting": "[10]", "value": 46, "unit": "%"},
      {"measurement": "plant response", "setting": "[11]; POSTEMERGENCE 0250 GM/HA", "value": 70, "unit": "%"},
      {"measurement": "plant response", "setting": "[11]; POSTEMERGENCE 0500 GM/HA", "value": 100, "unit": "%"},
      {"measurement": "plant response", "setting": "[11]; PREEMERGENCE 0064 GM/HA", "value": 40, "unit": "%"},
      {"measurement": "plant response", "setting": "[11]; PREEMERGENCE 0125 GM/HA", "value": 75, "unit": "%"},
      {"measurement": "plant response", "setting": "[11]; PREEMERGENCE 0250 GM/HA", "value": 100, "unit": "%"},
      {"measurement": "plant response", "setting": "[11]; PREEMERGENCE 0500 GM/HA", "value": 100, "unit": "%"},
      {"measurement": "pest or weed control at 100 ppm", "setting": "[12]", "value": 0, "unit": "%"},
      {"measurement": "pest or weed control at 100 ppm", "setting": "[13]", "value": 100, "unit": "%"},
      {"measurement": "pest or weed control at 5000 g/ha", "setting": "[14]", "value": 0, "unit": "%"},
      {"measurement": "plant response", "setting": "[15]; POSTEMERGENCE 0250 GM/HA", "value": 20, "unit": "%"},
      {"measurement": "plant response", "setting": "[15]; POSTEMERGENCE 0500 GM/HA", "value": 40, "unit": "%"},
      {"measurement": "plant response", "setting": "[15]; PREEMERGENCE 0064 GM/HA", "value": 35, "unit": "%"},
      {"measurement": "plant response", "setting": "[15]; PREEMERGENCE 0125 GM/HA", "value": 70, "unit": "%"},
      {"measurement": "plant response", "setting": "[15]; PREEMERGENCE 0250 GM/HA", "value": 90, "unit": "%"},
      {"measurement": "plant response", "setting": "[15]; PREEMERGENCE 0500 GM/HA", "value": 95, "unit": "%"}
    ]}
  ]
}
